In patent US6953813B1, “2-Aminotetralin derivatives for the therapy of glaucoma” (Chiesi Farmaceutici S.p.A., priority 1999, dated 2005):

What was measured:
Format in all cases: in vivo, rabbit
[1] = test system: normotensive Dutch Belted rabbits; test: Intraocular pressure (IOP) after single dose in normotensive rabbits
Experimental: Water (pH 4.5, made isotonic with sodium chloride), was selected as vehicle for the IOP-studies.
Five concentrations (0.01, 0.05, 0.2, 0.5 and 1.0% w/v) of CHF 1035 were studied. Brimonidine (0.2% w/v) was used as a positive, and vehicle (water pH 4.5) as a negative control.
(§1) The experimental animals used were normotensive Dutch Belted rabbits of either gender (n=6). A single drop (25 μl) of the test solution was instilled unilaterally into the left eye (treated eye). IOP of the rabbits (treated and untreated eyes) was measured at 1 and 0 h before, and at 0.5, 1, 2, 3, 4, 5, 6 and 7 h after topical eyedrop administration. IOP at the time of eyedrop administration (0 h) was used as a baseline value. IOP was measured using a BioRad Pneumatonometer. More detailed description of the IOP measurement procedure can be found in Pharm. Res. 14, 1738-1743, 1997 and Curr. Eye Res. 14, 791-797, 1995. All the studies were set up using a randomized crossover design. At least 72 h of wash-out time was allowed for each rabbit between dosings. The irritation caused by an instilled eyedrop were evaluated by recording the extent of eyelid closure after topical eyedrop administration.

[2] = test system: normotensive Dutch Belted rabbits; test: Eye irritation by extent of eyelid closure after topical eyedrop; conditions: single dose 25 μl of 0.5%, 0.2%, 0.05% and 0.01% solution
Experimental: as §1

[3] = test system: New-Zealand albino rabbits; test: IOP after single dose in rabbits with water-increased IOP; conditions: two drops of 5% solution per eye, one hour before 200 ml oral water
Experimental: A study versus placebo was carried out in 20 New-Zealand albino rabbits to evaluate the effects of CHF 1035 after single administration. Basal intraocular pressure (IOP) was measured in anaesthetized rabbits in both eyes. Each eye received two drops of physiological solution containing 5% of the drug. Control animals received only physiological solution. After one hour, the animals were administered by oral route with a total amount of 200 ml of distilled water. IOP increased within about one hour and normalized after about 3 hours. As no differences in IOP were observed between the two eyes, the respective tonometric curves were superimposed. IOP measurements were carried out by using a Goldman tonometer and were repeated one hour after the administration of water.
Values are expressed as mean (SE^132 1.6-2.7). The total number of eyes per group is in brackets.

[4] = test system: New-Zealand albino rabbits; test: IOP after repeated administration in rabbits with α-chymotrypsin-increased IOP; conditions: two drops of 5% solution per eye every 6 hours
Experimental: The effectiveness of CHF 1035 after repeated administration was tested in a study versus placebo, in 20 New-Zealand albino rabbits. In order to induce a chronic increase of the IOP, each animal was intraocularly injected with 0.5 mg/day of α-chymotrypsin for five days. Starting from the first day of treatment, two drops of physiological saline containing 5% of the drug were instilled in each eye every 6 hours. The control animals only received physiological saline.
The IOP measurement was performed as described in example 1, before the injection and subsequently every day until the 10th day.
FIG. 2 reports the effect of CHF 1035 on rabbit IOP after α-chymotrypsin injection. Values are reported as mean (SE=1.2-2.6; n=20 per group).

`CNC1CCc2c(ccc(OC(=O)C(C)C)c2OC(=O)C(C)C)C1` (racemic) [CHF 1035, (±)-(R,S)-5,6-diisobutyryloxy-2-methylaminotetralin] was tested. Which “IOP changes (mean ± SEM) in the treated eye” value ([1]; treated eye, 1.0% w/v, 420 min) did it give?
The value was −5.3 ± 1.5 mmHg.

And the “IOP changes (mean ± SEM) in the untreated eye” value ([1]; 0.01% w/v, 0 min)?
The value was 0.0 ± 0.0 mmHg.

What about the “IOP changes (mean ± SEM) in the untreated eye” value ([1]; 0.01% w/v, 30 min) of the same compound?
Its value is −1.0 ± 1.1 mmHg.

What about the “IOP changes (mean ± SEM) in the untreated eye” value ([1]; 0.01% w/v, 60 min) of the same compound?
Its value is −1.9 ± 1.2 mmHg.

What about the “IOP changes (mean ± SEM) in the untreated eye” value ([1]; 0.01% w/v, 120 min) of the same compound?
The value was −1.6 ± 1.0 mmHg.

What about the “IOP changes (mean ± SEM) in the untreated eye” value ([1]; 0.01% w/v, 180 min) of the same compound?
Its value is −0.5 ± 0.7 mmHg.

What about the “IOP changes (mean ± SEM) in the untreated eye” value ([1]; 0.01% w/v, 240 min) of the same compound?
Its value is −1.4 ± 0.7 mmHg.

And the “IOP changes (mean ± SEM) in the untreated eye” value ([1]; 0.01% w/v, 300 min)?
The value was −1.7 ± 0.4 mmHg.

What about the “IOP changes (mean ± SEM) in the untreated eye” value ([1]; 0.01% w/v, 360 min) of the same compound?
The value was 0.0 ± 0.6 mmHg.

And the “IOP changes (mean ± SEM) in the untreated eye” value ([1]; 0.01% w/v, 420 min)?
The value was 0.4 ± 0.7 mmHg.

What about the “IOP changes (mean ± SEM) in the untreated eye” value ([1]; 0.05% w/v, 0 min) of the same compound?
The value was 0.0 ± 0.0 mmHg.

And the “IOP changes (mean ± SEM) in the untreated eye” value ([1]; 0.05% w/v, 30 min)?
The value was 0.0 ± 0.6 mmHg.

And the “IOP changes (mean ± SEM) in the untreated eye” value ([1]; 0.05% w/v, 60 min)?
Its value is 0.1 ± 0.7 mmHg.

And the “IOP changes (mean ± SEM) in the untreated eye” value ([1]; 0.05% w/v, 120 min)?
The value was −1.5 ± 0.8 mmHg.

What about the “IOP changes (mean ± SEM) in the untreated eye” value ([1]; 0.05% w/v, 180 min) of the same compound?
Its value is −0.4 ± 1.0 mmHg.

And the “IOP changes (mean ± SEM) in the untreated eye” value ([1]; 0.05% w/v, 240 min)?
Its value is −1.0 ± 0.4 mmHg.

What about the “IOP changes (mean ± SEM) in the untreated eye” value ([1]; 0.05% w/v, 300 min) of the same compound?
Its value is −1.9 ± 0.9 mmHg.

And the “IOP changes (mean ± SEM) in the untreated eye” value ([1]; 0.05% w/v, 360 min)?
Its value is −0.6 ± 1.2 mmHg.

And the “IOP changes (mean ± SEM) in the untreated eye” value ([1]; 0.05% w/v, 420 min)?
The value was 0.3 ± 0.7 mmHg.

What about the “IOP changes (mean ± SEM) in the untreated eye” value ([1]; 0.2% w/v, 0 min) of the same compound?
Its value is 0.0 ± 0.0 mmHg.

And the “IOP changes (mean ± SEM) in the untreated eye” value ([1]; 0.2% w/v, 30 min)?
Its value is 1.0 ± 0.8 mmHg.

What about the “IOP changes (mean ± SEM) in the untreated eye” value ([1]; 0.2% w/v, 60 min) of the same compound?
The value was 0.5 ± 1.2 mmHg.

What about the “IOP changes (mean ± SEM) in the untreated eye” value ([1]; 0.2% w/v, 120 min) of the same compound?
Its value is 0.0 ± 0.9 mmHg.

What about the “IOP changes (mean ± SEM) in the untreated eye” value ([1]; 0.2% w/v, 180 min) of the same compound?
Its value is −1.5 ± 1.2 mmHg.

What about the “IOP changes (mean ± SEM) in the untreated eye” value ([1]; 0.2% w/v, 240 min) of the same compound?
Its value is −1.6 ± 1.1 mmHg.

What about the “IOP changes (mean ± SEM) in the untreated eye” value ([1]; 0.2% w/v, 300 min) of the same compound?
The value was −1.1 ± 1.1 mmHg.

What about the “IOP changes (mean ± SEM) in the untreated eye” value ([1]; 0.2% w/v, 360 min) of the same compound?
Its value is −0.7 ± 1.0 mmHg.

What about the “IOP changes (mean ± SEM) in the untreated eye” value ([1]; 0.2% w/v, 420 min) of the same compound?
The value was 0.0 ± 0.8 mmHg.

What about the “IOP changes (mean ± SEM) in the untreated eye” value ([1]; 0.5% w/v, 0 min) of the same compound?
Its value is 0.0 ± 0.0 mmHg.

And the “IOP changes (mean ± SEM) in the untreated eye” value ([1]; 0.5% w/v, 30 min)?
The value was 2.9 ± 0.8 mmHg.

And the “IOP changes (mean ± SEM) in the untreated eye” value ([1]; 0.5% w/v, 60 min)?
The value was 2.4 ± 0.7 mmHg.

And the “IOP changes (mean ± SEM) in the untreated eye” value ([1]; 0.5% w/v, 120 min)?
Its value is 1.4 ± 0.4 mmHg.

And the “IOP changes (mean ± SEM) in the untreated eye” value ([1]; 0.5% w/v, 180 min)?
The value was 0.0 ± 0.5 mmHg.

And the “IOP changes (mean ± SEM) in the untreated eye” value ([1]; 0.5% w/v, 240 min)?
Its value is −0.2 ± 0.7 mmHg.

What about the “IOP changes (mean ± SEM) in the untreated eye” value ([1]; 0.5% w/v, 300 min) of the same compound?
The value was −0.9 ± 0.4 mmHg.

And the “IOP changes (mean ± SEM) in the untreated eye” value ([1]; 0.5% w/v, 360 min)?
The value was −0.7 ± 0.6 mmHg.

What about the “IOP changes (mean ± SEM) in the untreated eye” value ([1]; 0.5% w/v, 420 min) of the same compound?
The value was −0.2 ± 0.3 mmHg.

And the “IOP changes (mean ± SEM) in the untreated eye” value ([1]; 1.0% w/v, 0 min)?
Its value is 0.0 ± 0.0 mmHg.

What about the “IOP changes (mean ± SEM) in the untreated eye” value ([1]; 1.0% w/v, 30 min) of the same compound?
Its value is 2.2 ± 0.9 mmHg.

What about the “IOP changes (mean ± SEM) in the untreated eye” value ([1]; 1.0% w/v, 60 min) of the same compound?
Its value is 1.2 ± 1.2 mmHg.

What about the “IOP changes (mean ± SEM) in the untreated eye” value ([1]; 1.0% w/v, 120 min) of the same compound?
The value was 1.0 ± 0.8 mmHg.

What about the “IOP changes (mean ± SEM) in the untreated eye” value ([1]; 1.0% w/v, 180 min) of the same compound?
The value was −2.5 ± 1.3 mmHg.

And the “IOP changes (mean ± SEM) in the untreated eye” value ([1]; 1.0% w/v, 240 min)?
The value was −1.8 ± 0.6 mmHg.

What about the “IOP changes (mean ± SEM) in the untreated eye” value ([1]; 1.0% w/v, 300 min) of the same compound?
Its value is −0.7 ± 0.8 mmHg.

What about the “IOP changes (mean ± SEM) in the untreated eye” value ([1]; 1.0% w/v, 360 min) of the same compound?
Its value is −0.2 ± 1.1 mmHg.

What about the “IOP changes (mean ± SEM) in the untreated eye” value ([1]; 1.0% w/v, 420 min) of the same compound?
The value was −0.9 ± 1.0 mmHg.

And the “eye irritation (eyelid closure)” value [2]?
The value was “no eyelid closure was observed”.

What about the “IOP after water loading versus control animals” value [3] of the same compound?
Its value is “IOP value significantly lower than control animals”.

What about the “tolerability during the whole cycle of treatment” value [4] of the same compound?
Its value is “well tolerated during the whole cycle of treatment and induced no eye irritation and/or discomfort”.

And the “IOP after α-chymotrypsin injection versus placebo” value ([4]; up to 10th day)?
The value was “significantly lower IOP than animals treated with placebo”.
